Consider 19 molecules from patent publication US9340549B2, “Oxazolidinone compounds and derivatives thereof” (priority 2012, dated 2016).

Like-named read-outs stand apart in the source and are kept apart here.

Assay [1] addresses 6×HIS-tankyrase 1 (1091-1325) (Homo sapiens (Human), UniProt O95271). Kind of assay: biochemical. The class given is biochemical. The following applies: 400 nM NAD, 60 minutes at room temperature, read-out: TNKS1 IP IC50.
Assay [2] relates to total β-catenin in SW480 colorectal cells. Kind of assay: cells. Type of assay: cell-based. As to the method: Total β-Catenin MSD 96-Well Plate Assay for SW480 Cells
SW480 colorectal cells were seeded at a density of 10,000/well in CellBIND 96-well plates (Corning catalog no. 3300) in 60 μL of normal growth medium (MEM alpha supplemented with 10% heat inactivated FBS, GlutaMAX, pyruvate, and 10 mM HEPES).
A 10-point, 3-fold dilution series for each TNKS inhibitor was constructed in a 96-well “stock” plate. […] The plates were incubated at 37° C. for 40 to 48 hours. The media was removed from the CellBIND plate via plate inversion and gentle shaking and the inverted plate was touched to a paper towel and immediately placed on ice. […] Plates containing cell lysates were sealed and shaken for one hour at 4° C. and then quickly frozen in a −80° C. for approximately 15 to 30 minutes followed by gradually thawing at 4° C. Finally, lysate containing plates were centrifuged @1000×g (2073 rpm) for 10 minutes at 4° C.
The sealed MSD plate was incubated overnight in a cold room with gentle shaking. The MSD plate was then blocked with 150 μL of Blocker “A” per well and incubated overnight at 4° C. with vigorous shaking. The blocked MSD plate was washed 4 times with 150 μL/well TBS-T wash buffer (150 mM NaCl, 50 mM Tris, pH 7.5, 0.02% Tween-20). Cell lysates (75 μL) were transferred to prepared MSD plates and incubated at 4° C. ON with gentle shaking. […] The detection antibody was incubated for 1 hour at room temperature with vigorous shaking after which plates were washed 3 times with 150 μL/well TBS-T wash buffer. Plates were processed for analysis by the addition of 150 μL/well MSD Read 4× Buffer T with surfactant (catalog no. R92TC-2; diluted 1:3 in deionized water) and were read on the SECTOR Imager 6000.

Where [3] appears, read: Homo sapiens, SW480 cells, 40 to 48 hours, top concentration 10 μM, read-out: SW480-Total β-Catenin IC50 IP.

Sequence of 6×HIS-tankyrase 1 (1091-1325) (O95271 1091-1325): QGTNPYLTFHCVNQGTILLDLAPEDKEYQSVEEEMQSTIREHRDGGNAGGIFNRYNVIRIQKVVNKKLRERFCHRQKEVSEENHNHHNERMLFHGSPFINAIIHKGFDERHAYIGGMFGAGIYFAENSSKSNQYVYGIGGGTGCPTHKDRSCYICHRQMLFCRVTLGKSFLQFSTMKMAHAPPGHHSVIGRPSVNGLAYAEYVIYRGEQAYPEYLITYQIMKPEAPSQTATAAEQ

`CC1(C)OC(=O)N([C@H]2CC[C@H](c3nnc(-c4ccccc4)o3)CC2)[C@H]1c1ccccc1` [Example 85, (S)-5,5-dimethyl-4-phenyl-3-((1r,4S)-4-(5-phenyl-1,3,4-oxadiazol-2-yl)cyclohexyl)oxazolidin-2-one]: the IC50 (usually the concentration needed to halve the response being measured) in assay [1] ([…] enzyme) is 45.2 nM; in assay [2] (setting [3]), 2410 nM.

`CC1(C)OC(=O)N([C@@H]2CC=C(c3cnc4cc[nH]c4c3)CC2)[C@H]1c1ccccc1` (mixture of isomers) [Example 169, mixture of (S)-3-((S)-4-(1H-pyrrolo[3,2-b]pyridin-6-yl)cyclohex-3-en-1-yl)-5,5-dimethyl-4-phenyloxazolidin-2-one and (S)-3-((R)-4-(1H-pyrrolo[3,2-b]pyridin-6-yl)cyclohex-3-en-1-yl)-5,5-dimethyl-4-phenyloxazolidin-2-one]: the results for the IC50 in assay [1] ([…] enzyme) and in assay [2] (setting [3]) were 88.6 nM and 3180 nM, respectively.

Consider “(S)-3-(4-(6-amino-5-(5-chloropyridazin-3-yl)pyridin-3-yl)phenyl)-5,5-dimethyl-4-phenyloxazolidin-2-one [Example 100]”, for which the IC50 was found to be 220 nM in assay [1] ([…] enzyme) and 3380 nM in assay [2] (SW480 cells, 40 to 48 hours, top concentration 10 μM, read-out: SW480-Total β-Catenin IC50 IP).

With `Cc1cc(N2C(=O)OC(C)(C)[C@@H]2c2ccccc2)ccc1C(=O)Nc1ccnc2cccnc12` [Example 128, (S)-4-(5,5-dimethyl-2-oxo-4-phenyloxazolidin-3-yl)-2-methyl-N-(1,5-naphthyridin-4-yl)benzamide], the results for the IC50 in assay [1] ([…] enzyme) and in assay [2] (setting [3]) were 693 nM and 4350 nM, respectively.

For the molecule `CC1(C)OC(=O)N(c2ccc(C(=O)Nc3cccc4cccnc34)cc2)C1c1cccnc1` (racemic) [Example 9, (+/−)-(R/S)-4-(5,5-dimethyl-2-oxo-4-(pyridin-3-yl)oxazolidin-3-yl)-N-(quinolin-8-yl)benzamide], the IC50 is 1160 nM in assay [1] (0.25 nM enzyme) and 2480 nM in assay [2] (setting [3]).

In the case of `CC1(C)OC(=O)N(C2CCN(c3cnc4ccn(-c5ncccn5)c4c3)CC2)[C@H]1c1ccccc1` [Example 140, (S)-5,5-dimethyl-4-phenyl-3-(1-(1-(pyrimidin-2-yl)-1H-pyrrolo[3,2-b]pyridin-6-yl)piperidin-4-yl)oxazolidin-2-one], the IC50 is 24.3 nM in assay [1] ([…] enzyme) and 1830 nM in assay [2] (setting [3]).

For the molecule `CC1(C)OC(=O)N(c2ccc(C(=O)Nc3nccc4cccnc34)cc2)[C@H]1c1ccccc1` [Example 20, (S)-4-(5,5-dimethyl-2-oxo-4-phenyloxazolidin-3-yl)-N-(1,7-naphthyridin-8-yl)benzamide], the IC50 amounted to 1480 nM in assay [1] ([…] enzyme) and 5330 nM in assay [2] (setting [3]).

Regarding `CC1(C)OC(=O)N(c2ccc(-n3c(=O)[nH]c4ccccc43)cc2)[C@H]1c1ccccc1` [Example 19, (S)-5,5-dimethyl-3-(4-(2-oxo-2,3-dihydro-1H-benzo[d]imidazol-1-yl)phenyl)-4-phenyloxazolidin-2-one], the IC50 in assay [1] ([…] enzyme) was found to be 863 nM; in assay [2] (setting [3]), 8630 nM.

On to `CC1(C)OC(=O)N([C@@H]2CC=C(c3cnc4ccn(-c5ncccn5)c4c3)CC2)[C@H]1c1ccccc1` (mixture of isomers) [Example 173, Mixture of (S)-5,5-dimethyl-4-phenyl-3-((S)-4-(1-(pyrimidin-2-yl)-1H-pyrrolo[3,2-b]pyridin-6-yl)cyclohex-3-en-1-yl)oxazolidin-2-one and (S)-5,5-dimethyl-4-phenyl-3-((R)-4-(1-(pyrimidin-2-yl)-1H-pyrrolo[3,2-b]pyridin-6-yl)cyclohex-3-en-1-yl)oxazolidin-2-one], for which the IC50 in assay [1] ([…] enzyme) is 9.26 nM; in assay [2] (setting [3]), 1120 nM.

For `C[C@@]1(c2ccccc2)CN([C@H]2CC[C@@H](n3c(=O)[nH]c4cc(C#N)ccc43)CC2)C(=O)O1` (stereo in doubt) [Example 93, 1-((1R,4r)-4-((R)-5-methyl-2-oxo-5-phenyloxazolidin-3-yl)cyclohexyl)-2-oxo-2,3-dihydro-1H-benzo[d]imidazole-5-carbonitrile], the figures for the IC50 in assay [1] ([…] enzyme) and in assay [2] (setting [3]) were 3 nM and 125 nM, respectively.

For the molecule `CC1(C)OC(=O)N(c2ccc(C(=O)Nc3cccc4cccnc34)cc2)[C@H]1c1ccccn1` [Example 123, (S)-4-(5,5-dimethyl-2-oxo-4-(pyridin-2-yl)oxazolidin-3-yl)-N-(quinolin-8-yl)benzamide], the IC50 in assay [1] ([…] enzyme) stood at 228 nM; in assay [2] (setting [3]) it was 3440 nM.

As for `CC1(C)OC(=O)N(c2ccc(C(=O)Nc3cccc4cccnc34)cc2)[C@@H]1c1ccccn1` [Example 122, (R)-4-(5,5-dimethyl-2-oxo-4-(pyridin-2-yl)oxazolidin-3-yl)-N-(quinolin-8-yl)benzamide], the IC50 in assay [1] ([…] enzyme) amounted to 1530 nM; in assay [2] (setting [3]), 8560 nM.

On to `CC1(C)OC(=O)N(c2ccc(-c3cnc(N)c(-c4nccc(C#N)n4)c3)cc2)[C@H]1c1ccccc1` [Example 102, (S)-2-(2-amino-5-(4-(5,5-dimethyl-2-oxo-4-phenyloxazolidin-3-yl)phenyl)pyridin-3-yl)pyrimidine-4-carbonitrile], for which the figures for the IC50 in assay [1] ([…] enzyme) and in assay [2] (setting [3]) were 920 nM and over 10000 nM, respectively.

For the molecule `CC1(C)OC(=O)N(c2ccc(-c3cnc(N)c(-c4nccc(C(=N)N)n4)c3)cc2)[C@H]1c1ccccc1` [Example 99, (S)-2-(2-amino-5-(4-(5,5-dimethyl-2-oxo-4-phenyloxazolidin-3-yl)phenyl)pyridin-3-yl)pyrimidine-4-carboximidamide], the IC50 was found to be 14.3 nM in assay [1] (0.25 nM enzyme) and 620 nM in assay [2] (Homo sapiens, SW480, read-out: SW480-Total β-Catenin IC50 IP).

For `CC1(C)OC(=O)N([C@H]2CC[C@H](n3c(=O)[nH]c4c(F)cc(F)cc43)CC2)[C@H]1c1ccccc1` [Example 104, (S)-3-((1r,4S)-4-(4,6-difluoro-2-oxo-2,3-dihydro-1H-benzo[d]imidazol-1-yl)cyclohexyl)-5,5-dimethyl-4-phenyloxazolidin-2-one], the IC50 in assay [1] ([…] enzyme) is 93 nM; in assay [2] (setting [3]), over 10000 nM.

Take `CC1(C)OC(=O)N(c2ccc(C(=O)Nc3cccc4cccnc34)cc2)C1c1cccc(F)c1` (racemic) [Example 108, (+/−)-(R/S)-4-(4-(3-fluorophenyl)-5,5-dimethyl-2-oxooxazolidin-3-yl)-N-(quinolin-8-yl)benzamide]: the IC50 in assay [1] (0.25 nM enzyme) was 551 nM; in assay [2] (setting [3]) it was over 10000 nM.

`CC1(C)OC(=O)N(c2ccc(C(=O)Nc3cccc4cccnc34)cc2)C1c1ccccn1` (racemic) [Example 121, (+/−)-(R/S)-4-(5,5-dimethyl-2-oxo-4-(pyridin-2-yl)oxazolidin-3-yl)-N-(quinolin-8-yl)benzamide]: the IC50 in assay [1] (0.25 nM enzyme) is 310 nM; in assay [2] (setting [3]), 5640 nM.

Turning to `CC1(C)OC(=O)N(c2ccc(-c3cc(-c4ccccn4)cnc3F)cc2)[C@H]1c1ccccc1` [Example 114, (S)-3-(4-(6′-fluoro-[2,3′-bipyridin]-5′-yl)phenyl)-5,5-dimethyl-4-phenyloxazolidin-2-one], the IC50 in assay [1] ([…] enzyme) stood at 447 nM; in assay [2] (setting [3]) it was 1780 nM.

Turning to `COc1cccc([C@@H]2N(c3ccc(C(=O)Nc4cccc5cccnc45)cc3)C(=O)OC2(C)C)c1` [Example 107, (S)-4-(4-(3-Methoxyphenyl)-5,5-dimethyl-2-oxooxazolidin-3-yl)-N-(quinolin-8-yl)benzamide], the IC50 in assay [1] ([…] enzyme) amounted to 89.9 nM; in assay [2] (setting [3]), 2360 nM.
